Structures can show the parent of a compound that is named as a salt.
Tested on: not listed separately
Assay: Rabbit fed cholesterol-enriched (1%) feedstuff, dosage of elements causing dyslipemia
Type: in vivo
Parameters: total cholesterol (T) / esterified cholesterol (E) / Kunkelphenol test (K2) / Burstein dextrane test (B) / serum lipids (LS): unit not given here
Details: 1st day; 100 mg/Kg orally
Protocol: (§1) The animals divided into several batches of 15 animals are fed with feedstuff enriched in cholesterol (1%). Batch A serves as control and is not treated, the other batches also receive the derivatives to be tested at a dose of 100 mg/Kg, administered orally, suspended in aqueous solution of gum arabic at 5%. On the first day of experimentation and then every 15 days for 75 days biological examinations are conducted on all the animals, during which the various elements causing dyslipemia are dosed; total cholesterol (T), esterified cholesterol (E), free cholesterol (L), esterification ratio (E/T), Kunkel-Phenol test (K1), Kunkelphenol test (K2), Burstein dextrane test (B) and serum lipids (LS).

SMILES	Burstein dextrane test (B)	Kunkel-Phenol test (K1)	Kunkelphenol test (K2)	esterification ratio (E/T)	esterified cholesterol (E)	free cholesterol (L)	serum lipids (LS)	total cholesterol (T)
CCCCN(C)c1c(-c2ccc(OC)cc2)sc2ccccc12 [derivative 42, 3-(N-butyl,N-methylamino)-2-(4-methoxyphenyl)-benzo(b)thiophene]	11,2	8,1	13,7	0,50	0,26	0,25	2,05	0,51
CCN(CC)c1c(-c2ccc(Cl)cc2)sc2ccccc12 [derivative 37, Hydrochloride of 2-(4-chlorophenyl)-3-diethylamino-benzo(b)thiophene]	10,5	8,2	12,9	0,47	0,27	0,30	2,00	0,57
CN(C)c1c(-c2ccccc2)sc2ccccc12 [derivative 29, 3-dimethylamino-2-phenyl-benzo(b)thiophene]	10,7	7,8	12,7	0,46	0,27	0,28	1,95	0,58
c1ccc(CN2CCN(c3c(-c4ccccc4)sc4ccccc34)CC2)cc1 [derivative 24, 3-(4-benzylpiperazino)-2-phenyl-benzo(b) thiophene]	10,8	8,2	13,0	0,50	0,28	0,27	2,00	0,55
c1ccc(CNc2c(-c3ccccc3)sc3ccccc23)cc1 [derivative n° 1, 3-benzylamino-2-phenyl-benzo(b)thiophene]	10,8	7,9	12,8	0,53	0,28	0,24	1,98	0,52

Same assay, conditions: 30th day; 100 mg/Kg orally

SMILES	Burstein dextrane test (B)	Kunkel-Phenol test (K1)	Kunkelphenol test (K2)	esterification ratio (E/T)	esterified cholesterol (E)	free cholesterol (L)	serum lipids (LS)	total cholesterol (T)
CCCCN(C)c1c(-c2ccc(OC)cc2)sc2ccccc12 [derivative 42, 3-(N-butyl,N-methylamino)-2-(4-methoxyphenyl)-benzo(b)thiophene]	21,2	18,9	25,5	0,62	0,90	0,55	2,91	1,45
CCN(CC)c1c(-c2ccc(Cl)cc2)sc2ccccc12 [derivative 37, Hydrochloride of 2-(4-chlorophenyl)-3-diethylamino-benzo(b)thiophene]	21,3	18,8	25,1	0,62	0,97	0,58	2,85	1,55
CN(C)c1c(-c2ccccc2)sc2ccccc12 [derivative 29, 3-dimethylamino-2-phenyl-benzo(b)thiophene]	21,00	18,4	24,9	0,60	0,89	0,59	2,83	1,48
c1ccc(CN2CCN(c3c(-c4ccccc4)sc4ccccc34)CC2)cc1 [derivative 24, 3-(4-benzylpiperazino)-2-phenyl-benzo(b) thiophene]	2,1	18,8	25,3	0,65	0,98	0,52	2,87	1,50
c1ccc(CNc2c(-c3ccccc3)sc3ccccc23)cc1 [derivative n° 1, 3-benzylamino-2-phenyl-benzo(b)thiophene]	21,3	18,8	25,7	0,63	0,95	0,55	2,9	1,50

Same assay, conditions: 75th day; 100 mg/Kg orally

SMILES	Burstein dextrane test (B)	Kunkel-Phenol test (K1)	Kunkelphenol test (K2)	esterification ratio (E/T)	esterified cholesterol (E)	free cholesterol (L)	serum lipids (LS)	total cholesterol (T)
CCCCN(C)c1c(-c2ccc(OC)cc2)sc2ccccc12 [derivative 42, 3-(N-butyl,N-methylamino)-2-(4-methoxyphenyl)-benzo(b)thiophene]	35,4	33,2	45,0	0,61	1,85	1,09	4,05	2,94
CCN(CC)c1c(-c2ccc(Cl)cc2)sc2ccccc12 [derivative 37, Hydrochloride of 2-(4-chlorophenyl)-3-diethylamino-benzo(b)thiophene]	35,7	32,8	46,7	0,61	1,80	1,14	4,15	2,94
CN(C)c1c(-c2ccccc2)sc2ccccc12 [derivative 29, 3-dimethylamino-2-phenyl-benzo(b)thiophene]	35,1	32,6	41,5	0,60	1,75	1,15	3,95	2,90
c1ccc(CN2CCN(c3c(-c4ccccc4)sc4ccccc34)CC2)cc1 [derivative 24, 3-(4-benzylpiperazino)-2-phenyl-benzo(b) thiophene]	35,2	32,9	48,2	0,61	1,80	1,11	3,98	2,91
c1ccc(CNc2c(-c3ccccc3)sc3ccccc23)cc1 [derivative n° 1, 3-benzylamino-2-phenyl-benzo(b)thiophene]	36,2	33,3	44,2	0,62	1,84	1,12	4,18	2,96

Tested on: fatty infiltrations of the liver
Assay: Rabbit autopsy, mark for fatty infiltrations of the liver
Type: in vivo
Details: mark of 0 to 3; end of test (75 days); 100 mg/Kg orally
Protocol: as §1
(§2) At the end of the test all the animals are killed and an autopsy is carried out; a macroscopic examination is then conducted on the livers and aortas and a mark of 0 to 3 is given to the amount of fatty infiltrations of the liver and 0 to 4 to the intensity of aortic atheromatous lesions.

SMILES	fatty infiltrations of the liver
CCCCN(C)c1c(-c2ccc(OC)cc2)sc2ccccc12 [derivative 42, 3-(N-butyl,N-methylamino)-2-(4-methoxyphenyl)-benzo(b)thiophene]	0,9
CCN(CC)c1c(-c2ccc(Cl)cc2)sc2ccccc12 [derivative 37, Hydrochloride of 2-(4-chlorophenyl)-3-diethylamino-benzo(b)thiophene]	1,00
CN(C)c1c(-c2ccccc2)sc2ccccc12 [derivative 29, 3-dimethylamino-2-phenyl-benzo(b)thiophene]	0,8
c1ccc(CN2CCN(c3c(-c4ccccc4)sc4ccccc34)CC2)cc1 [derivative 24, 3-(4-benzylpiperazino)-2-phenyl-benzo(b) thiophene]	1,00
c1ccc(CNc2c(-c3ccccc3)sc3ccccc23)cc1 [derivative n° 1, 3-benzylamino-2-phenyl-benzo(b)thiophene]	1,1

Tested on: aortic atheromatous lesions
Assay: Rabbit autopsy, mark for aortic atheromatous lesions
Type: in vivo
Details: mark of 0 to 4; end of test (75 days); 100 mg/Kg orally
Protocol: as §1, §2

SMILES	aortic atheromatons lesions
CCCCN(C)c1c(-c2ccc(OC)cc2)sc2ccccc12 [derivative 42, 3-(N-butyl,N-methylamino)-2-(4-methoxyphenyl)-benzo(b)thiophene]	1,5
CCN(CC)c1c(-c2ccc(Cl)cc2)sc2ccccc12 [derivative 37, Hydrochloride of 2-(4-chlorophenyl)-3-diethylamino-benzo(b)thiophene]	1,3
CN(C)c1c(-c2ccccc2)sc2ccccc12 [derivative 29, 3-dimethylamino-2-phenyl-benzo(b)thiophene]	1,1
c1ccc(CN2CCN(c3c(-c4ccccc4)sc4ccccc34)CC2)cc1 [derivative 24, 3-(4-benzylpiperazino)-2-phenyl-benzo(b) thiophene]	1,4
c1ccc(CNc2c(-c3ccccc3)sc3ccccc23)cc1 [derivative n° 1, 3-benzylamino-2-phenyl-benzo(b)thiophene]	1,6

Tested on: not listed separately
Assay: Propylthiouracil test, free and total cholesterol in the rat
Type: in vivo
Details: 11th day; propylthiouracil-treated rats; oral 100 mg/Kg
Protocol: Experiments were carried out according to the propylthiouracil test (RANNEY & Coll., J. PHARMACOL. EXPER. THERAP. 1963, 142, 132-136). The propyl-thiouracil administered to adult rats has the property of making them hypercholesterolemic: the plasma level of cholesterol increases by approximately 15% under these conditions. Experiments are conducted on various batches of rats, the control batch receiving only propylthiouracil and the other treated batches also receiving the composition of the invention at an oral dose of 100 mg/Kg.
On the 11th day of experimentation blood samples are taken and the free cholesterol and total cholesterol is dosed.

SMILES	Free cholesterol	Total cholesterol
CCCCN(C)c1c(-c2ccc(OC)cc2)sc2ccccc12 [derivative 42, 3-(N-butyl,N-methylamino)-2-(4-methoxyphenyl)-benzo(b)thiophene]	0,12 g/l	0,54 g/l
CCN(CC)c1c(-c2ccc(Cl)cc2)sc2ccccc12 [derivative 37, Hydrochloride of 2-(4-chlorophenyl)-3-diethylamino-benzo(b)thiophene]	0,13 g/l	0,58 g/l
CN(C)c1c(-c2ccccc2)sc2ccccc12 [derivative 29, 3-dimethylamino-2-phenyl-benzo(b)thiophene]	0,12 g/l	0,50 g/l
c1ccc(CN2CCN(c3c(-c4ccccc4)sc4ccccc34)CC2)cc1 [derivative 24, 3-(4-benzylpiperazino)-2-phenyl-benzo(b) thiophene]	0,14 g/l	0,56 g/l
c1ccc(CNc2c(-c3ccccc3)sc3ccccc23)cc1 [derivative n° 1, 3-benzylamino-2-phenyl-benzo(b)thiophene]	0,15 g/l	0,61 g/l

Source: patent US4157399A, “Benzo(B)thiophenes” (Parcor, priority 1976, dated 1979)
